The target in assay [1] is T1, CXCR4 (Homo sapiens, UniProt P61073). Put plainly: Adenylate cyclase (cAMP inhibition) assay, thiadiazine scaffold, CHO-CXCR4-cAMP cells. Format: cell-based. Set-up: host or cells: CHO-K1. The method, then: Tango™ CXCR4-bla U2OS Cells (Invitrogen; K1779) were used for (β-arrestin recruitment assays and maintained as a monolayer culture in McCoy's 5a (Corning; 10-050-CV) supplemented with 10% dialyzed Fetal Bovine Serum (Gibco; 26400-044), 0.1 mM MEM Non-essential amino acids solution, 25 mM HEPES solution (Corning; 25-060-CI), 1 mM Sodium Pyruvate (Gibco; 11360-070), 200 μg/mL Zeocin selection reagent (Gibco; R25001), 50 μg/mL Hygromycin B (Gibco, 10687010), and 100 μg/mL Geneticin (G418 Sulfate) (Gibco, 10131035). U2OS cells were subcultured twice weekly by 0.05% Trypsin-EDTA treatment (Corning; 25-051-CI) and passaged to continue exponential growth phase for cell signaling assays. All cell cultures were maintained in cell culture incubators at 37° C. with 5% CO2. CHO-K1 CXCR4 cells (DiscoverX, Fremont, CA, USA) were used for cAMP inhibition assays and maintained as a monolayer culture in DMEM/F12 (Corning; 10-091-CV) supplemented with 10% Fetal Bovine Serum (Corning; 35-011-CV) and 100IU penicillin, […] streptomycin sulfate (Corning; 30-002-CI) and […] G418 (Gibco; 101310350. Cells were subculture 2 times weekly by o.o5% Trypsin-EDTA treatment (Corning; 25-051-CI) and passaged to continue exponential growth phase for cell signaling assays. All cell cultures were maintained in cell culture incubators at 37° C. with 5% CO2.CEM-CCRF cells (ATCC CCL-119) were used in both the migration and calcium flux assays and were cultured in growth media consisting of RPMI 1640 (Corning; 10-040-CV) supplemented with 10% Fetal Bovine Serum (Corning; 35-011-CV), and 100 IU penicillin, […] streptomycin sulfate (Corning; 30-002-CI). […] Cells were harvested for use in migration and calcium flux assays at 2.0×10^6 cells/mL to 2.5×10^6 cells/mL and resuspended in assay media to desired density for respective experiments.
T1 sequence (P61073 whole entry): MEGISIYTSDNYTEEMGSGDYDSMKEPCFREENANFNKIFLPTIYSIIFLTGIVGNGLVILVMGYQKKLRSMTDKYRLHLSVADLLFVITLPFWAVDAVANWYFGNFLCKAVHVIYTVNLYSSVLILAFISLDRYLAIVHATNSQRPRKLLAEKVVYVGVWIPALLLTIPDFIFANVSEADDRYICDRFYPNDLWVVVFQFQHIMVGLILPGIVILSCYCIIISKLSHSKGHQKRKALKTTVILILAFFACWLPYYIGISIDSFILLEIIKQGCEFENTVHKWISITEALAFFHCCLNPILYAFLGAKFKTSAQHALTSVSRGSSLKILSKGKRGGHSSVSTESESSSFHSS
Compounds and DMSO normalization to 0.5% were dispensed using the TECAN D300e digital dispenser into the wells of a 384-well white wall clear-bottom assay plate (Griener 781983). […] This cell suspension was dispensed at 20 μL per well into the assay plate and allowed to incubate overnight for approximately 18 hrs with compounds in cell culture incubator at 37° C. with 5% CO2. Following incubation, DMEM/F12 media was gently removed, then the Lance Ultra cAMP Kit (Perkin Elmer; TRF0263) was performed according to the supplier guidelines. […] Time-resolved fluorescence was measured on the BMG LABTECH CLARIOstar Plus (BMG LABTECH Inc., Cary, NC) using the Lance Ultra cAMP kit guidelines for excitation and emission. […]

Assay [2] deals with T1, CXCR4. Put plainly: cAMP signaling assay, oxazole scaffold (forskolin-induced adenylate cyclase, CHO-K1 CXCR4 cells). Format: cell-based. On the set-up: host or cells: CHO-K1. The method, then:
The CXCR4 receptor is a G-protein coupled receptor (GPCR) coupled to the Gi class, whose primary role is inhibition of adenylate cyclase. The ability of UCUF-728 to induce Gi-mediated cAMP-inhibitory cellular response was tested.
Forskolin at final concentration of […] was added to all wells using the TECAN dispenser. […] PathHunter CHO-K1 CXCR4 cells (DiscoverX, Fremont, CA) were added to compounds at 3,000 cells/well, centrifuged at 1000 rpm for 30 sec and incubated for 30 min at room temperature. DMSO (Sigma Aldrich, St. Louis, MO) was normalization to 0.5%. 5 μL of 4× Eu-cAMP tracer working solution was added to all wells followed by addition of 5 μL of 4× Ulight-anti-cAMP working solution to all wells. Plates were centrifuged at 1000 rpm for 1 min and incubated for 1 hr at room temperature then read using CLARIOstar Plus (BMG LABTECH Inc., Cary, NC) Lance CAMP protocol.

In assay [3] the test system is CEM-CCRF human lymphoblast cells. Put plainly: Transwell migration assay in CEM-CCRF lymphoblasts. The assay is classed as cell-based. The method, then:
Thus, to confirm CXCR4 functional activity, UCUF-728 was evaluated in a 96 w transwell migration assay in CEM human lymphoblast cells.
CEM-CCRF (ATCC CCL-119) were suspended in RPMI 1640 (Corning; 10-040-CV) at 5.0×10^5 cells/mL and allowed to incubate in cell culture incubator at 37° C. with 5% CO2 for one hour. […] Plates were reassembled and placed in a cell culture incubator at 37° C. with 5% CO2 for three hours. After incubation, Multi-Screen plate was disassembled and 100 μl of solution was collected from compound receiver tray and transferred to 96 well luminescent plate (Thermo Scientific; 265302) and an equal volume of ATPLite Istep luminescence reagent (Perkin Elmer, Waltham, MA; 6016731) was added to each well. Luminescence was measured using the CLARIOstar Plus (BMG LABTECH Inc., Cary, NC).

Assay [4] has as its target T1, CXCR4. Put plainly: Tag-Lite CXCR4 binding assay (displacement of fluorescent SDF-1α). The method, then:
Binding activity was measured using the Cisbio Tag-Lite Chemokine CXCR4 system (CisBio, Bedford, MA). […] Following three-hour incubation, HTRF measurements were taken using the BMG LABTECH CLARIOstar Plus (BMG LABTECH Inc., Cary, NC) with emission signals set to the Cisbio Tag-Lite Binding Assay supplier guidelines. HTRF ratio calculations completed according to supplier guidelines.

The target of assay [5] is T1, CXCR4. Put plainly: β-arrestin recruitment, 384-well, Tango CXCR4-bla U2OS cells, normalized to SDF-1α. The assay is classed as cell-based. On the set-up: host or cells: U2OS. To be noted: normalized to SDF-1α; read-out: ß-arrestin recruitment EC50. As for the experimental part:
Tango™ CXCR4-bla U2OS Cells (Invitrogen; K1779) were used for (β-arrestin recruitment assays and maintained as a monolayer culture in McCoy's 5a (Corning; 10-050-CV) supplemented with 10% dialyzed Fetal Bovine Serum (Gibco; 26400-044), 0.1 mM MEM Non-essential amino acids solution, 25 mM HEPES solution (Corning; 25-060-CI), 1 mM Sodium Pyruvate (Gibco; 11360-070), 200 μg/mL Zeocin selection reagent (Gibco; R25001), 50 μg/mL Hygromycin B (Gibco, 10687010), and 100 μg/mL Geneticin (G418 Sulfate) (Gibco, 10131035). U2OS cells were subcultured twice weekly by 0.05% Trypsin-EDTA treatment (Corning; 25-051-CI) and passaged to continue exponential growth phase for cell signaling assays. All cell cultures were maintained in cell culture incubators at 37° C. with 5% CO2. CHO-K1 CXCR4 cells (DiscoverX, Fremont, CA, USA) were used for cAMP inhibition assays and maintained as a monolayer culture in DMEM/F12 (Corning; 10-091-CV) supplemented with 10% Fetal Bovine Serum (Corning; 35-011-CV) and 100IU penicillin, […] streptomycin sulfate (Corning; 30-002-CI) and […] G418 (Gibco; 101310350. Cells were subculture 2 times weekly by o.o5% Trypsin-EDTA treatment (Corning; 25-051-CI) and passaged to continue exponential growth phase for cell signaling assays. All cell cultures were maintained in cell culture incubators at 37° C. with 5% CO2.CEM-CCRF cells (ATCC CCL-119) were used in both the migration and calcium flux assays and were cultured in growth media consisting of RPMI 1640 (Corning; 10-040-CV) supplemented with 10% Fetal Bovine Serum (Corning; 35-011-CV), and 100 IU penicillin, […] streptomycin sulfate (Corning; 30-002-CI). Cells were maintained in suspension and sub-cultured twice weekly to maintain cell densities between 0.8×10^6 cells/mL and 2.5×10^6 cells/mL to maintain exponential growth phase. Cells were harvested for use in migration and calcium flux assays at 2.0×10^6 cells/mL to 2.5×10^6 cells/mL and resuspended in assay media to desired density for respective experiments.
Tango™ CXCR4-bla U2OS Cells were resuspended in assay media consisting of DMEM (Corning; Corning, NY) supplemented with 1% dialyzed Fetal bovine serum, 0.1 mM MEM Non-essential amino acids solution, 25 mM HEPES solution (Corning; Corning, NY), 1 mM Sodium Pyruvate and 100 IU penicillin, […] streptomycin sulfate (Corning; Corning, NY) at a density of 3.0×10^5 cells/ml. Assay media FreeStyle 293 expression Medium (Gibco; 12338018) was used for testing the thiadiazine scaffold CXCR4 agonists. Cells suspension was dispensed at 30 μl per well into assay plate and incubated overnight in a cell culture incubator at 37° C. with 5% CO2. […] Following overnight incubation, LiveBlazer FRET B/G Loading Kit (Invitrogen; K1095) working reagent was prepared according to supplier guidelines and 6 μl of solution was dispensed into each well; 8 μL of solution for testing the thiadiazine scaffold CXCR4 agonists. Assay plate was covered and incubated in a dark place for two hours and Fluorescence Intensity was measured using the BMG LABTECH CLARIOstar Plus (BMG LABTECH Inc., Cary, NC) according to the LiveBlazer FRET B/G Loading Kit excitation and emission measurement guidelines.
Results are expressed as mean±SD for 3 to 5 independent experiments. Statistically significant differences in gene expression between two groups were assessed by Student's T-test, ANOVA with an appropriate post hoc test was be used for multiple comparisons. P<0.05 was considered to be statistically significant. All concentration response curves were analyzed to determine EC50 and Emax using the following equation:
where Y is the normalized response (0-100%), X is the log of concentration of compound tested, and the Hill slope is equal to 1.0% and 100% activity are specific to each assay. […]

pEC50, pIC50: −log10 of the molar value. “Also recorded” adds a separate entry of the source. Where two headings read alike, the source gives them in different places.

The results in this text go back to patent US20250136617A1 (The Regents of the University of Colorado, A Body Corporate, priority 2022, published 2025).

As to `c1cc(CN2CCCNCCNCCCNCC2)ccc1CN1CCCNCCNCCCNCC1` [AMD3100, reference compound], on CXCR4 [1], the “cAMP inhibition activity” value is on record as “reduces the activity of SDF-1α to inhibit cAMP”. Also, the Emax at CXCR4 [1] (read-out: SDF-1α Emax reduced to, in the presence of 1 μM AMD3100) turned out to be 40%. Besides, the “cAMP signaling / forskolin-induced adenylate cyclase” value on CXCR4 [2] is “dose-dependently blocked; also recorded: dose-dependent inhibition of 40 nM SDF-1α”. Also, the figures for the “migration activity (words)” value in assay [3] and in assay [3] (listed as AMD 3100) were “blocked; also recorded: completely blocks SDF-1α induced migration; also recorded: unable to inhibit UCUF-965-induced migration; also recorded: does not inhibit the migratory response of CEM-CCRF cells induced by UCUF-965” and “able to inhibit the migration response induced by SDF-1α”, respectively. Also, in assay [3] (Homo sapiens, read-out: logIC50, inhibition of migration (converted)), the IC50 was 31.6 nM. The “displacement of SDF-1α binding” value at CXCR4 [4] is reported as “dose-dependently displaced SDF-1α; also recorded: dose-dependently displaced SDF-1a saturation binding; also recorded: dose-dependently inhibited SDF-1α saturation binding”.

With `CCOc1ccccc1-c1nnc2n1N=C(c1ccc(N3CCCC3)cc1)CS2` [Entry 23], the pEC50 at CXCR4 [1] (inhibition of forskolin-stimulated cAMP) is 7.30; on CXCR4 [5], 7.70.

Regarding `CCOc1ccccc1-c1nnc2n1N=C(c1ccc(N3CCCC3=O)cc1)CS2` [compound 63], the “cAMP inhibition activity” value on CXCR4 [1] was “partial agonist activity”. In assay [3], the “migration activity (words)” value is given as “partial agonist activity”.

Consider SDF-1α, for which the pIC50 on CXCR4 [1] (CXCR4 overexpressing CHO cells, read-out: IC50, inhibition of forskolin-stimulated cAMP production) was 8.82. Also, the “log IC50, inhibition of forskolin-stimulated cAMP production” value at CXCR4 [1] (log value) is −8.9±0.1 M. Moreover, the “cAMP signaling / forskolin-induced adenylate cyclase” value on CXCR4 [2] is “inhibited forskolin-induced adenylate cyclase”.
